According to PMC9897767, “Assessments of CYP‑inhibition‑based drug–drug interaction between vonoprazan and poziotinib in vitro and in vivo” (Pharmaceutical Biology, 2023):
Like-named read-outs stand apart in the source and are kept apart here. Values belong to the compound of their own block, whether it stands above or below them.

Legend:
[1] = Pharmacokinetics of vonoprazan and metabolite M-I in rats with and without poziotinib pretreatment; assay type: in vivo, Sprague-Dawley (SD) rats; settings: vonoprazan; for CL/F / Cmax / Tmax / half-life / MRT last / MRT inf / Vd/F: male, Sprague-Dawley, rat, serum, po, 10 mg/kg; for CL/F: 10 mg/kg gavage, read-out: CLz/F (converted); for MRT last: read-out: MRT(0-t); for MRT inf: read-out: MRT(0-∞); for Vd/F: read-out: Vz/F
Method: Twelve healthy male SD rats were randomly divided into two groups. The poziotinib group was given 5 mg/kg poziotinib by gavage every day for 7 days, and rats in the control group only received equal amounts of 0.5% CMC-Na solution in the pre-treatment time. Then animals in the poziotinib group and the control group were fasted for 12 h. On Day 8, the poziotinib group was given poziotinib (5 mg/kg) by gavage, and vonoprazan (10 mg/kg) was given 30 min later, while the control group was only given vonoprazan (10 mg/kg) by gavage. Tail venous blood (300 µL) was collected at 0.083, 0.25, 0.5, 1, 2, 3, 4, 6, 12, and 24 h after the administration of vonoprazan, and then the blood was centrifuged at 4,000 rpm, and 4 °C for 10 min. The serum was collected and stored at −80 °C. After thawing at room temperature, 100 μL of the serum sample was removed and 200 μL of acetonitrile containing diazepam (500 ng/mL) was then added to precipitate proteins. After vortexing, 150 μL of supernatant was removed and centrifuged at 13,000 rpm for 5 min. Then, 2 μL of sample was used for the detection of vonoprazan and its main metabolite M-I by UPLC-MS/MS.
DAS (version 3.2.8; The People’s Hospital of Lishui) was used to fit and calculate the pharmacokinetic parameters of vonoprazan and its metabolite M-I, which include peak time (Tmax), maximum plasma concentration (Cmax), elimination half-life (T1/2), area under the drug-time curve (AUC) and clearance rate (CLz/F). SPSS (version 25.0, IBM, USA) was used for the data processing. Student’s t-test was used to compare the normal distribution of the data, and the Mann–Whitney U test was used for the nonnormal distribution of the data. *p < 0.05 indicates a significant difference compared to the control group and **p < 0.001 indicates an extremely significant difference compared to the control group.
ACQUITY I-Class UPLC and Waters XEVO TQD MS (Milford, MA, USA) were used for the detection of vonoprazan and M-I with an ACQUITY UPLC BEH C18 chromatographic column (50 × 2.1 mm, 1.7 μm) at 40 °C. […] The injection volume of the sample was 2 μL. The scanning method was multiple reaction monitoring (MRM) with detection in positive ion mode and an ESI + ion source. Other mass spectrometry parameters were as follows: capillary voltage 2.0 kV, ion source temperature 150 °C, dissolvent temperature 500 °C, argon flow rate 0.15 mL/min, cone hole gas flow 50 L/h, solvent gas flow 1000 L/h. The precursor ion and product ion were m/z 346.04→314.97 for vonoprazan, m/z 347.50→205.00 for M-I, and m/z 285.10→193.10 for internal standard (IS), diazepam.

[2] = Michaelis-Menten kinetics of vonoprazan in rat liver microsomes; assay type: in vitro ADME; settings: pH 7.4, vonoprazan as substrate
Method: Rat liver microsomes (RLMs) were prepared according to the previously reported differential centrifugation method (Eriksson [1978]; Wang et al. [2018]), and the concentration of total protein in the RLM was determined to be 28 mg/mL by the BCA protein quantitative method. Then, a 200 μL incubation system was established, which consisted of 5 μg RLM, 100 mM phosphate buffer (pH 7.4), 10 μM vonoprazan (close to its Km), and a series gradient concentration of poziotinib (100, 50, 10, 5, 1, 0.1, 0.01 μM). The mixture was preincubated at 37 °C for 5 min, and NADPH (1 mM) was then added to start the reaction after vortexing. […] Vonoprazan and its metabolite M-I were detected by UPLC-MS/MS according to the previously reported method (Shen et al. [2020]). […]
To better understand the inhibitory mechanism of poziotinib on vonoprazan, a series of gradient concentrations of vonoprazan were used in the reaction, which included 1/4-, 1/2-, 1-, and 2-times the Km value. […] The above mentioned UPLC-MS/MS method was used for the quantification of the vonoprazan metabolite M-I. Ki and αKi values were calculated, and the inhibitory mechanism was analyzed using a primary Lineweaver-Burk diagram, Dixon diagram, and secondary Lineweaver-Burk diagram by GraphPad Prism 9.0.

[3] = test system: metabolism of vonoprazan in rat liver microsomes; experiment: Inhibition of vonoprazan metabolism by poziotinib in rat liver microsomes; assay type: in vitro ADME
Method: Rat liver microsomes (RLMs) were prepared according to the previously reported differential centrifugation method (Eriksson [1978]; Wang et al. [2018]), and the concentration of total protein in the RLM was determined to be 28 mg/mL by the BCA protein quantitative method. Then, a 200 μL incubation system was established, which consisted of 5 μg RLM, 100 mM phosphate buffer (pH 7.4), 10 μM vonoprazan (close to its Km), and a series gradient concentration of poziotinib (100, 50, 10, 5, 1, 0.1, 0.01 μM). The mixture was preincubated at 37 °C for 5 min, and NADPH (1 mM) was then added to start the reaction after vortexing. The mixture was placed at 37 °C in a water bath for 30 min with shaking, and 200 μL acetonitrile was added to terminate the reaction and precipitate the protein. Diazepam-acetonitrile solution was then added accurately to serve as the internal standard. After vortexing, the mixture was centrifuged at 12,000 rpm for 10 min and the supernatant was transferred to the sample bottle for further separation. Vonoprazan and its metabolite M-I were detected by UPLC-MS/MS according to the previously reported method (Shen et al. [2020]). The nonlinear regression equation was fitted with GraphPad Prism 9.0 software to calculate the IC50 value of poziotinib.
To better understand the inhibitory mechanism of poziotinib on vonoprazan, a series of gradient concentrations of vonoprazan were used in the reaction, which included 1/4-, 1/2-, 1-, and 2-times the Km value. Similarly, concentrations of 0, 1/4-, 1/2-, 1-, and 2-times the IC50 of poziotinib were also included in the experiment. The above mentioned UPLC-MS/MS method was used for the quantification of the vonoprazan metabolite M-I. Ki and αKi values were calculated, and the inhibitory mechanism was analyzed using a primary Lineweaver-Burk diagram, Dixon diagram, and secondary Lineweaver-Burk diagram by GraphPad Prism 9.0.

[4] = set-up: method as in Suzuki et al. ([2021]); settings: kidney transplant recipients, after switching from rabeprazole to vonoprazan coadministration; ref Suzuki et al. ([2021]); cited from earlier work
[5] = oral 10 mg/kg, control group (no poziotinib)
[6] = oral 10 mg/kg, poziotinib group (5 mg/kg oral pretreatment)
[7] = oral 10 mg/kg, poziotinib 5 mg/kg pretreatment

CL/F ([1]; control group): 2710 mL/min/kg
CL/F ([1]; poziotinib pretreatment 5 mg/kg): 431 mL/min/kg
Cmax [1, 5]: 5.69 ± 3.73 ng/mL
Tmax [1, 5]: 0.63 ± 0.31 h
half-life [1, 5]: 1.25 ± 0.77 h
MRT last [1, 5]: 2.29 ± 0.36 h
MRT inf [1, 5]: 2.29 ± 0.36 h
Vd/F [1, 5]: 298 ± 191 L/kg
Cmax [1, 6]: 15.4 ± 4.98 ng/mL
Tmax [1, 6]: 1.92 ± 2.06 h
half-life [1, 6]: 2.84 ± 1.44 h
MRT last [1, 6]: 5.26 ± 1.77 h
MRT inf [1, 6]: 5.51 ± 2.06 h
Vd/F [1, 6]: 90.5 ± 27.3 L/kg
AUC(0-T) increase, poziotinib group vs control group [1, 7]: 6.02 fold
AUC(0-∞) increase, poziotinib group vs control group [1, 7]: 6.11 fold
CLz/F reduction, poziotinib group vs control group [1, 7]: 84%
Cmax increase, poziotinib group vs control group [1, 7]: 2.7 fold
MRT(0-T) increase, poziotinib group vs control group [1, 7]: 2.30 fold
MRT(0-∞) increase, poziotinib group vs control group [1, 7]: 2.41 fold
T1/2 increase, poziotinib group vs control group [1, 7]: 2.2 fold
Tmax increase, poziotinib group vs control group [1, 7]: 3.0 fold
Vz/F reduction, poziotinib group vs control group [1, 7]: 70%
Km at 30 min [2]: 14.3 µM
Compound: CNCc1cc(-c2ccccc2F)n(S(=O)(=O)c2cccnc2)c1 [vonoprazan]

Ki ([3]; Lineweaver-Burk, slope of primary plot, read-out: inhibitory constant Ki): 0.574 µM
IC50 at 30 min ([3]; pH 7.4, probe vonoprazan 10 μM (metabolite M-I measured), 10 μM vonoprazan, NADPH 1 mM, 37 °C 30 min): 10.6 µM
Compound: C=CC(=O)N1CCC(Oc2cc3c(Nc4ccc(Cl)c(Cl)c4F)ncnc3cc2OC)CC1 [poziotinib]
inhibition mechanism ([3]; Lineweaver-Burk plot): mixed model of noncompetitive and uncompetitive inhibition

Compound: C=CC[C@@H]1/C=C(\C)C[C@H](C)C[C@H](OC)[C@H]2O[C@@](O)(C(=O)C(=O)N3CCCC[C@H]3C(=O)O[C@H](/C(C)=C/[C@@H]3CC[C@@H](O)[C@H](OC)C3)[C@H](C)[C@@H](O)CC1=O)[C@H](C)C[C@@H]2OC [tacrolimus]
increase of blood concentration of tacrolimus [4]: 65.8%
